We go through 1 molecule from patent publication US20250084056A1, “SUBSTITUTED OXOISOINDOLINYL PIPERIDINE-2,6-DIONE COMPOUNDS” (BRISTOL-MYERS SQUIBB COMPANY, priority 2023, published 2025).

One assay deals with pS807/811 Rb1. The experiment in a line: Inhibition of RB1 phosphorylation (Western blot) in HCC1569 cells. Type of assay: cell-based. Conditions: HCC1569 cancer cells, 24 h, FIG. 1B. Here is the method:
The assay measured the ability of the compound to degrade Cyclin E1, inhibit RB phosphorylation, and to determine the selectivity against degradation of GSPT1 in cancer cells in vitro. HCC1569 cells (ATCC #CRL-2330) were cultured in RPMI media (Gibco, catalog A104910) supplemented with 10% FBS (Gibco, catalog 10091148). Cells were plated in tissue culture-treated 6 well plates at a density of 0.5 million cells per well in 2 mL media. The cells were then incubated overnight in a cell culture incubator (5% CO2 and 37° C.) and allowed to attach to the plate. The following day cells were dosed with compounds at the desired concentrations. Compounds were first resuspended in DMSO to make 10 mM stock, and 20 μM stock was prepared by diluting 10 mM stock in culture media. […] Total protein concentration was measured using a BCA assay kit (Thermo Scientific, cat #P123227). […] Protein was then detected by incubating blots with 2 mL of HRP detection reagent (Thermo scientific cat #A38556) for one minute at room temperature. Excess reagent was drained and gently removed on a Kimwipe and the chemiluminescence signal was detected using Fluorchem imaging system. […] Relative quantification of western blots was performed using ImageJ software, data was then normalized to loading control (β-Actin) first and then to the DMSO-treated sample. […]
A general note: Immunoblotting shows a protein as a band on a membrane.

The subject of assay [1] is NIHOVCAR3 ovarian adenocarcinoma xenograft model. Description: In vivo xenograft tumor efficacy study, NIHOVCAR3. The settings on record: OVCAR3 xenografts, repeated dosing. Details: species or system mice. The protocol:
The anti-cancer efficacy of Example 35 was evaluated in xenograft models by measuring the reduction in tumor volume in animals treated with Example 35 compared to vehicle control animals. First, 5-10×10^6 tumor cells/animal in a 1:1 Matrigel® mix (0.2 mL total volume) were injected subcutaneously into female NSG mice (for NIHOVCAR3) and SCID mice (for HCC1569). Both strains of mice were purchased from Jackson Laboratory. Once tumors reached ˜150-200 mm^3, animals were randomized into groups of 8-10 animals/treatment arm for efficacy studies. Example 35 was administered via oral gavage (PO) at indicated doses and regimens (Table 7). Tumor growth and body weight were measured twice/week during the course of the study to evaluate efficacy and signs of toxicity.
Example 35 was formulated in 10% ethanol, 10% Vitamin E—TPGS, 30% propylene glycol, 50% PEG400 and administered by oral gavage (final volume 0.2 mL) at the doses indicated in Table 7. […]
The efficacy for each treated arm at different dose levels were calculated using the following formula: % ΔT/ΔC=[(TVT−TVT0)/(TVC−TVC0)]×100%. […] The percentage of tumor growth inhibition was calculated from the formula: % TGI=[100%−(% ΔT/ΔC)]. […]
Example 35 was evaluated for in vivo single-agent efficacy against the HCC1569 breast carcinoma xenograft model and NIHOVCAR3 ovarian adenocarcinoma xenograft model.

For the molecule `COc1c(COC(=O)Nc2ccc(Oc3ccc(F)c(F)c3)cc2)ccc2c1C(=O)N([C@H]1CCC(=O)NC1=O)C2` (single isomer, unassigned) [Example 35, {2-[(3 S)-2,6-dioxopiperidin-3-yl]-4-methoxy-3-oxo-2,3-dihydro-1H-isoindol-5-yl}methyl N-[4-(3,4-difluorophenoxy)phenyl]carbamate], in the assay with pS807/811 Rb1, the “inhibition of RB1 phosphorylation” value is on record as “inhibited RB1 phosphorylation”. Also, the anti-tumor activity entry in assay [1] is “dose-dependent anti-tumor activity”.
